Measurements: US7527938B2, “Methods for diagnosis and treatment of chronic immune diseases” (R.E.D. Laboratories N.V./S.A., priority 2001, dated 2009)
Where a SMILES comes first, the peptide text is derived from it. The star is where a group is joined. Cbz = O=C(OCc1ccccc1)*

Test system: Stat-1-specific proteases in PBMC extracts
Assay: Effect of protease inhibitors on Stat-1 protein degradation in mixed PBMC extracts (Western blot)
Type: biochemical, human
Settings: healthy control PBMC extract mixed with CFS patient PBMC extract (RNase L ratio=3.0), 37 C, 15 minutes; inhibitor 50 micromolar final concentration; anti-Stat-1 Western blot (FIG. 4)
Procedure: One of the two extracts used was from a healthy control (i.e., RNase L ratio<0.2; no protease present, detectable levels of Stat-1 protein). The other extract was from a patient with CFS (i.e., RNase L ratio>2.0; protease(s) present, no detectable level of Stat-1 protein).
Sixty (60) micrograms of PBMC extract from the healthy control was mixed with 60 micrograms of PBMC extract from a CFS patient and incubated at 37 C for 15 minutes in the presence of a) buffer only, b) DMSO (solvent for the protease inhibitors), c) Calpastatine, 50 micromolar final concentration, d) Calpain Inhibitor Type I, 200 micromolar final concentration, e) Calpain Inhibitor Type II, 200 micromolar final concentration, f) Caspase 3 Inhibitor Type II, 5 micromolar final concentration, or g) Proteasome Inhibitor (MG 132), 50 micromolar final concentration. All protease inhibitors above, as well as DMSO, were from Sigma Chemical Company.
After the 15 minute incubation, 2×SDS-PAGE gel sample dye was added and the sample heated to 95 C for five minutes to denature the proteins. The denatured samples were then subjected to standard SDS-PAGE using a 4 percent stacking gel and 10 percent separating gel. Transfer to PVDF membrane, Western blot with anti-Stat-1 antibody, and color development were performed exactly as described above.

CC(C)C[C@@H](C=O)NC(=O)[C@H](CC(C)C)NC(=O)[C@H](CC(C)C)NC(=O)OCc1ccccc1 [MG 132] (Cbz-Leu-Leu-Leu-aldehyde)
degradation of Stat-1 protein: inhibited
